This is an account of results in US20200016200A1, “MODULATING CYTOTOXIC CELL LYTIC GRANULE POSITIONING TO PROMOTE DIFFUSE KILLING IN CELLULAR THERAPIES” (Baylor College of Medicine, priority 2016, published 2020).

This assay has as its system YTS cells. In words: Lytic granule convergence, fixed cell confocal microscopy (granule to MTOC distance). The conditions noted are these: YTS conjugated with 721.221 target cells; ciliobrevin D 100 μM vs vehicle. It counts as cell-based, human. The source says: In previous studies, it was shown that granule convergence is dynein-dependent (Mentlik et al., 2010). To further characterize this, regarding the role for convergence in promoting killing efficiency and protecting bystanders, a small molecule dynein inhibitor ciliobrevin D (Firestone et al., 2012) was used to try and block the convergence of lytic granules to the MTOC from their dispersed localization in the cytoplasm. This would allow us to manipulate granule trafficking via blocking the motor protein function, instead of altering activating signal input. YTS, NK92 or eNK cells were treated with either ciliobrevin D or vehicle and conjugated with their respective target cells. […] As a separate measure of granule dispersion, the standard deviation of the granule to MTOC distance was calculated to show the degree of scatter of individual lytic granules. […] CD107a staining was additionally performed to test whether ciliobrevin D treatment affected the exocytosis of lytic granules; the proportion of eNK cells that degranulated after treatment with ciliobrevin D increased (FIG. 13A), whereas in the NK cell lines it decreased (FIG. 13B-13C). In all cases, however, degranulation still occurred in the presence of ciliobrevin D. […]
Raw image sequences were analyzed using Volocity software. For lytic granules, the centroid of individual lytic granule was designated automatically based on the fluorescence intensity of the corresponding staining (LysoTracker Red or perforin) (Mentlik et al., 2010). For MTOC, in fixed-cell confocal experiments, the point with the highest fluorescence intensity of α-tubulin staining was denoted as the localization of MTOC; in live-cell experiments, the geometric centroid of all the lytic granules in the cell was used to provide a measure of proximity of lytic granule regions. Lytic granule convergence to the MTOC or to the centroid of all granules was measured as previously described (Mentlik et al., 2010). […]

For `N#CC(C(=O)c1ccc(Cl)cc1Cl)=C1NC(=O)c2ccc(Cl)cc2N1` [ciliobrevin D, 2-(7-chloro-4-oxo-3,4-dihydroquinazolin-2(1H)-ylidene)-3-(2,4-dichlorophenyl)-3-oxopropanenitrile], the “lytic granule convergence as determined by mean granule to MTOC distance” value was “blocked lytic granule convergence”.
